Here are results for three compounds from patent US11234914B2, “Monosubstituted urea derivatives as a self-tanning substance” (MERCK PATENT GMBH, priority 2016, dated 2022).

The test system of experiment [1] is Normal Human Epidermal Keratinocytes (NHEK) and Normal Human Epidermal Melanocytes, lightly pigmented (NHEM-LP) co-culture. The experiment can be described thus: Synthesis of melanin in NHEK/NHEM-LP co-culture. It is filed as cell-based. The settings on record: 240 hours (10 days) incubation, NHEK:NHEM-LP 2:1, OD 405 nm. On the procedure:
Evaluation of the Synthesis of Melanin in a Cell Culture Model Containing Two Cell Types (Co-Culture), Firstly Normal Human Epidermal KeratinoCytes (NHEK) and Secondly Normal Human Epidermal Melanocytes, Lightly Pigmented (NHEM-LP)
The two cell types NHEK and NHEM-LP (NHEK:NHEM-LP) are employed in a ratio of 2:1.
The culture medium consists of the media keratinocyte-SFM (2 parts by volume) and medium M254 (1 part by volume).
Keratinocyte-SFM contains 0.25 ng/ml of epidermal growth factor (EGF), 25 μg/ml of pituitary extract (PE) and 25 μg/ml of gentamycin and was purchased from Thermo Fisher Scientific.
M254 contains PMA-free HMGS-2, 5 μg/ml of insulin, 50 U/ml of penicillin, 50 μg/ml of streptomycin and 25 μg/ml of gentamycin and was purchased from Thermo Fisher Scientific.
NHEK and NHEM-LP were incubated in the culture medium in microtitre plates (24-well plates) for 24 hours (37° C., 5% CO2). The culture medium was removed and replaced by an assay medium which contained the culture medium and compounds Ia, Ib and Ic to be tested or alternatively no test substance, the reference L-tyrosine (1 mM), 200 μM of IBMX or the solvent control 0.1% of THF, 0.15% of THF. Compounds Ia, Ib and Ic are added as solution (0.15% in THF). After replacement of the assay medium, the cells were incubated again for 240 hours (10 days). On days 3 and 7, assay medium was again added. All experimental investigations were carried out using a triple determination. After the end of the incubation, the melanin was extracted by cell lysis with 0.5 N NaOH. The optical density (OD) of each sample was measured at 405 nm. The melanin quantity was calculated from melanin standards (standard curve 0.39 to 100 μg/ml of melanin).

Experiment [2] deals with 3D melanized reconstructed human epidermis (RHEs-MEL). Put plainly: Tanning properties in vitro on reconstructed epidermis. It is filed as cell-based. The note with it: compound at 25 μM and 12.5 M. On the procedure:
Evaluation of the Tanning Properties In Vitro on Reconstructed Epidermis
In this study, the tanning properties of compound Ic are investigated in vitro on 3D melanized reconstructed human epidermis (RHEs-MEL). The compound IBMX (3-isobutyl-1-methylxanthine) 100 μM is employed as positive control. Compound Ic is employed 25 μM and […]. Untreated reconstructed skin is used as negative control. The in vitro skin is treated systemically with the compounds to be investigated in a culture medium for 10 days and then analysed.

`NC(=O)NCc1ccccc1` [Compound Ia, Benzylurea]: the “stimulation of melanin synthesis” value in experiment [1] (tested at 45 μM) is recorded as 17%.

As to `COc1ccc(CNC(N)=O)cc1` [Compound Ib, (4-methoxybenzyl)urea], in experiment [1] (tested at 45 μM), the “stimulation of melanin synthesis” value was determined as 18%.

For the compound `NC(=O)NCc1ccc2c(c1)OCO2` [Compound Ic, benzo[1,3]dioxol-5ylmethylurea], in experiment [2] (10 days, both concentrations), the “ITA value (individual typology angle)” value is recorded as “reduction” and the amount of melanin result is reported as “increased”. Further, in experiment [2] (systemic treatment in culture medium for 10 days, evident for both concentrations), the “tanning properties compared with positive control IBMX 100 μM” value is reported as “comparably good properties as IBMX at 100 μM”. Further, the “stimulation of melanin synthesis” value in experiment [1] (tested at 20 μM) was determined as 23%. Also, the “stimulation of melanin synthesis” value in experiment [1] (tested at 30 μM) came to 44%.
